Test results as given in PubChem BioAssay (NCI).
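Results reflect a 48-hour exposure of cells in 96-well plates to compound at five concentrations. The concentration for full growth arrest is given as TGI.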

What was measured:
Assay in all cases: DTP human tumour cell line panel, 48 h
[1] = tested on: UACC-62 melanoma
[2] = tested on: HCT-116 colon
[3] = tested on: SF-268 CNS
[4] = tested on: OVCAR-5 ovarian
[5] = tested on: A549 NSCLC
[6] = tested on: SNB-75 CNS
[7] = tested on: SK-MEL-2 melanoma
[8] = tested on: RXF-631 renal
[9] = tested on: NCI-H522 lung
[10] = tested on: SK-MEL-28 melanoma
[11] = tested on: HOP-92 NSCLC
[12] = tested on: CCRF-CEM leukemia
[13] = tested on: UACC-257 melanoma
[14] = tested on: M14 melanoma
[15] = tested on: 786-0 renal
[16] = tested on: MALME-3M melanoma
[17] = tested on: SNB-19 CNS
[18] = tested on: UO-31 renal
[19] = tested on: SW-620 colon
[20] = tested on: NCI-H460 lung
[21] = tested on: OVCAR-4 ovarian
[22] = tested on: ACHN renal
[23] = tested on: CAKI-1 renal
[24] = tested on: COLO 205 colon
[25] = tested on: HOP-62 NSCLC
[26] = tested on: XF 498 CNS
[27] = tested on: DLD-1 colon
[28] = tested on: IGROV1 ovarian
[29] = tested on: NCI-H23 lung
[30] = tested on: M19-MEL melanoma
[31] = tested on: HCT-15 colon
[32] = tested on: LXFL 529 NSCLC
[33] = tested on: SN12C renal
[34] = tested on: DMS 114 small cell lung
[35] = tested on: EKVX NSCLC
[36] = tested on: TK-10 renal
[37] = tested on: LOX IMVI melanoma
[38] = tested on: OVCAR-3 ovarian
[39] = tested on: A498 renal
[40] = tested on: MOLT-4 leukemia
[41] = tested on: OVCAR-8 ovarian
[42] = tested on: SK-MEL-5 melanoma
[43] = tested on: NCI-H226 lung
[44] = tested on: SNB-78 CNS
[45] = tested on: HT29 colon
[46] = tested on: DMS 273 small cell lung
[47] = tested on: SK-OV-3 ovarian
[48] = tested on: SF-539 CNS
[49] = tested on: K-562 leukemia
[50] = tested on: HL-60(TB) leukemia
[51] = tested on: KM20L2 colon
[52] = tested on: RPMI-8226 leukemia
[53] = tested on: SF-295 CNS
[54] = tested on: RXF 393 renal
[55] = tested on: KM12 colon
[56] = tested on: SR leukemia
[57] = tested on: U251 CNS
[58] = tested on: HCC-2998 colon

Measured: TGI

CCOC(=O)c1ccc(N=Cc2ccc(N(CCC#N)CCC#N)cc2)cc1
not listed: [55] | [56] | [57] | [58]
> 100 µM: all other assays above

CCOC(=O)c1ccc(O)cc1
not listed: [32] | [33] | [38] | [39] | [41] | [42]
> 100 µM: all other assays above
